This note sets out measurements from ChEMBL document CHEMBL4017537, “Discovery of a Potent and Specific M. tuberculosis Leucyl-tRNA Synthetase Inhibitor: (S)-3-(Aminomethyl)-4-chloro-7-(2-hydroxyethoxy)benzo[c][1,2]oxaborol-1(3H)-ol (GSK656)” (J Med Chem, 2017).

Assay type in all cases: ADME, organism-based
Holding throughout (conditions): in vivo

Data set [1] is described as follows: AUC (0 to infinity) in CD-1 mouse at 30 mg/kg, iv after 24 hrs by LC-MS/MS analysis. Also noted: dose 30 mg/kg, route intravenous, time infinity.
Data set [2] deals with Mus musculus. The data set is described as follows: Dose normalized AUC (0 to infinity) in CD-1 mouse at 30 mg/kg, iv after 24 hrs by LC-MS/MS analysis.
Data set [3] in a line: Tmax in CD-1 mouse at 30 mg/kg administered via oral gavage after 24 hrs by LC-MS/MS analysis.
The test system of data set [4] is Mus musculus. Description: Dose normalized AUC (0 to 24 hrs) in CD-1 mouse at 30 mg/kg administered via oral gavage by LC-MS/MS analysis.
The nature of data set [5]: Half life in C57BL/6 mouse at 5.5 mg/kg, iv administered as single dose measured up to 24 hrs by LC-MS/MS analysis.
Data set [6] deals with Mus musculus. The data set is described as follows: Dose normalized AUC (0 to infinity) in C57BL/6 mouse at 5.5 mg/kg, iv administered as single dose measured up to 24 hrs by LC-MS/MS analysis.
Data set [7] in a line: Clearance in C57BL/6 mouse at 5.5 mg/kg, iv administered as single dose measured up to 24 hrs by LC-MS/MS analysis.

With `CCOc1ccc(Br)c2c1B(O)O[C@@H]2CN`, the AUC(0-inf) in data set [1] was 43400 ng·h/mL. The AUC/dose was found to be 1.45 µg·h/mL/mg/kg in the data set with Mus musculus [2] and 1.92 µg·h/mL in the data set on Mus musculus [4]. Moreover, the Tmax in data set [3] was 0.5 h.

`Cl.NC[C@H]1OB(O)c2c(OCCO)ccc(Cl)c21`: in data set [5], the half-life was 3.6 h. Also, the AUC/dose in the data set on Mus musculus [6] worked out at 2.03 µg·h/mL/mg/kg. The clearance in data set [7] was determined as 8.5 mL/min/kg.
